Data published in US7488712B2, “Histone deacetylase inhibitors and methods for producing the same” (Kyushu Institute of Technology, priority 2002, dated 2009).

Columns and labels:
human HDAC1 = molecular target: T1, human HDAC1 (Homo sapiens, UniProt Q13547); experiment: In vitro HDAC inhibition activity, [3H]-acetylated histone substrate, HDAC1; assay type: biochemical; conditions: Table 3
T1 construct: FLAG; made in house; host or cells: 293T cells (transient transfection, anti-FLAG immunoprecipitation, FLAG peptide elution)
T1 sequence (Q13547 whole entry): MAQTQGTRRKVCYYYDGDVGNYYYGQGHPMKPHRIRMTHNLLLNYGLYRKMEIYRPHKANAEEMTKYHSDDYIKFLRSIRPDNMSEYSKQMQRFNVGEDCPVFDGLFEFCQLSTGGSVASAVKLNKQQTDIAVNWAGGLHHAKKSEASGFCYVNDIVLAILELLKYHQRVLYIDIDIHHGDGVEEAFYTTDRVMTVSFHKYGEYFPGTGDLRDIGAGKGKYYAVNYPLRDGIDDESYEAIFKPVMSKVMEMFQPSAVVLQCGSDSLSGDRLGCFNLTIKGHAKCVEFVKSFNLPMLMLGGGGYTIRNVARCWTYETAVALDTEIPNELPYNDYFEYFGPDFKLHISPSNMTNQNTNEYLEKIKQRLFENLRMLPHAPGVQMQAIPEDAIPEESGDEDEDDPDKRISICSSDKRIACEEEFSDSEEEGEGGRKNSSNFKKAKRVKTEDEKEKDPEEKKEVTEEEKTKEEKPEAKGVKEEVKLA

human HDAC4 = molecular target: T2, human HDAC4 (Homo sapiens, UniProt P56524); experiment: In vitro HDAC inhibition activity, [3H]-acetylated histone substrate, HDAC4; assay type: biochemical; conditions: Table 3
T2 construct: FLAG; made in house; host or cells: 293T cells (transient transfection, anti-FLAG immunoprecipitation, FLAG peptide elution)
T2 sequence (O15379 whole entry partner): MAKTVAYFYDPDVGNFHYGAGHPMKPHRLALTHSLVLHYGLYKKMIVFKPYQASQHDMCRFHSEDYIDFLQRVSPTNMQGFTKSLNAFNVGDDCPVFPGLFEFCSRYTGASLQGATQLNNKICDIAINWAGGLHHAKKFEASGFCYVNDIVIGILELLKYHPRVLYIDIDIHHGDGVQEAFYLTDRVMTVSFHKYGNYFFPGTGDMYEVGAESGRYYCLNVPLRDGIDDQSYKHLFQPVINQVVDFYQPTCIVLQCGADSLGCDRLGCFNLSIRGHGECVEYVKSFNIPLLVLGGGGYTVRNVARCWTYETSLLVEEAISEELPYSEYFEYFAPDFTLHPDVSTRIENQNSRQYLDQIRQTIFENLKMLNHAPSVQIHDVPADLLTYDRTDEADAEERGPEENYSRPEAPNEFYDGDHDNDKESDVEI
T2 sequence (P56524 whole entry): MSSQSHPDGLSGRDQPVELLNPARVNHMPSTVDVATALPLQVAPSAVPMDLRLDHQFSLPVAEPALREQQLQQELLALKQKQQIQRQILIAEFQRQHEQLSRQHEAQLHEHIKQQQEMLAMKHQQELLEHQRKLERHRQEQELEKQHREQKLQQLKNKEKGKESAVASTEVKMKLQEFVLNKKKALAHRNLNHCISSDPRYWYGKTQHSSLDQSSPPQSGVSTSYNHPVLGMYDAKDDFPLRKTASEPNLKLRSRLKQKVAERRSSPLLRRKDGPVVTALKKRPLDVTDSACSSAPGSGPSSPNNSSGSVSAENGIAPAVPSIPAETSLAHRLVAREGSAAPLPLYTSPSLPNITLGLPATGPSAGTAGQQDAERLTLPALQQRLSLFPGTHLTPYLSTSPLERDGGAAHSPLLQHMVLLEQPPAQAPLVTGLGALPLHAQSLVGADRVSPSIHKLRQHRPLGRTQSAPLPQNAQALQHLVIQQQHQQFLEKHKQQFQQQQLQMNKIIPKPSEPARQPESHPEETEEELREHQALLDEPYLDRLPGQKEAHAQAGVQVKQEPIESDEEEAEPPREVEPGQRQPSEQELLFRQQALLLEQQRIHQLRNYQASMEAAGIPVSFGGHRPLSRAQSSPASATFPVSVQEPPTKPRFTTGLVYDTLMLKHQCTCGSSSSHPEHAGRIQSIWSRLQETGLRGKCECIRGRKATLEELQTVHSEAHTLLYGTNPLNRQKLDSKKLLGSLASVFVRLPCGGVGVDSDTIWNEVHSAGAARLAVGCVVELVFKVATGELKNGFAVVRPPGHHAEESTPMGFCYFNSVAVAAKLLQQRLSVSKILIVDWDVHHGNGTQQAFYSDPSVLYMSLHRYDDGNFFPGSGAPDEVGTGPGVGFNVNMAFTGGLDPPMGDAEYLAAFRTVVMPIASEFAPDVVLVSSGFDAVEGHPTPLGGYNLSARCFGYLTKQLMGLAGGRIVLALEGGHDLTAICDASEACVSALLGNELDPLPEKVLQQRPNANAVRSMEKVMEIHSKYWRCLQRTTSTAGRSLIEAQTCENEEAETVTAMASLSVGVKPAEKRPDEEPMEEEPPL

[1] = test system: human wild-type p21 promoter; experiment: p21 promoter-inducing activity (luciferase) in MFLL-9 cells; assay type: cell-based
[2] = Stability in serum (FCS), read out by p21 promoter inducing activity; assay type: in vitro ADME; conditions: FCS, 37° C.; activity at incubation time zero taken as 100%; FIG. 7
Experimental: The stability of SCOP 152, SCOP 304, and SCOP 402 in serum was evaluated by the method shown below: 1 μl of 10 mM SCOP 152, SCOP 304, and SCOP 402 was added to 99 μl FCS, and incubated at 37° C. Each hour, NaCl in a sufficient amount for saturation and 1 ml of ethyl acetate were added to each mixture. After extraction, from 800 μl of the ethyl acetate phase, the ethyl acetate was distilled off, and then 100 μl of DMSO was added to the residue. The resulting solution was further diluted ten times with DMSO and used to measure p21 promoter inducing activity. Activity at incubation time zero was taken as 100%, and activities were compared (FIG. 7).

## CC[C@H](C)[C@@H]1NC(=O)[C@@H](Cc2ccc(OC)cc2)NC(=O)[C@H](CCCCCSSc2ccncc2)NC(=O)[C@H]2CCCN2C1=O [SCOP 402, cyclo(-L-Am7(S4Py)-D-Tyr(Me)-L-Ile-D-Pro-)]
Human HDAC1; hybrid with DTT (/DTT)
  IC50: 0.553 nM
Human HDAC1; hybrid, without DTT
  IC50: 6.76 nM
Human HDAC4; hybrid with DTT (/DTT)
  IC50: 1.12 nM
Human HDAC4; hybrid, without DTT
  IC50: 68.3 nM
[1]; Table 3, hybrid with DTT (/DTT)
  EC50: 470 nM
[1]; Table 3, hybrid, without DTT
  EC50: 1310 nM
[2]
  Retention of activity in serum: stably retain activity in serum for longer than SCOP 152
